# Molecular target: T1, human PAD4 (Homo sapiens, UniProt Q9UM07)
# T1 construct: human PAD4 (NM_012387), A2P663, was PCR amplified; His-SUMO (N, cleaved yes); made in house; host or cells: E. coli BL21(DE3)
# Assay: In vitro PAD4 BAEE biochemical assay
# Conditions: human PAD4, BAEE substrate; 5 nM PAD4, 2 mM calcium chloride, 3 mM BAEE; geometric mean of multiple experiments
# Summary of the method: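 Tag-free recombinant hPAD4 (5 nM), 2 mM CaCl2, 3 mM BAEE, 50 mM MOPS pH 7.6, 2 mM DTT; 30 min compound preincubation, 2 h reaction, all 25 °C. EDTA quench; ammonia read via o-phthalaldehyde amine coupling, 1 h.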
# T1 sequence (Q9UM07 2-663): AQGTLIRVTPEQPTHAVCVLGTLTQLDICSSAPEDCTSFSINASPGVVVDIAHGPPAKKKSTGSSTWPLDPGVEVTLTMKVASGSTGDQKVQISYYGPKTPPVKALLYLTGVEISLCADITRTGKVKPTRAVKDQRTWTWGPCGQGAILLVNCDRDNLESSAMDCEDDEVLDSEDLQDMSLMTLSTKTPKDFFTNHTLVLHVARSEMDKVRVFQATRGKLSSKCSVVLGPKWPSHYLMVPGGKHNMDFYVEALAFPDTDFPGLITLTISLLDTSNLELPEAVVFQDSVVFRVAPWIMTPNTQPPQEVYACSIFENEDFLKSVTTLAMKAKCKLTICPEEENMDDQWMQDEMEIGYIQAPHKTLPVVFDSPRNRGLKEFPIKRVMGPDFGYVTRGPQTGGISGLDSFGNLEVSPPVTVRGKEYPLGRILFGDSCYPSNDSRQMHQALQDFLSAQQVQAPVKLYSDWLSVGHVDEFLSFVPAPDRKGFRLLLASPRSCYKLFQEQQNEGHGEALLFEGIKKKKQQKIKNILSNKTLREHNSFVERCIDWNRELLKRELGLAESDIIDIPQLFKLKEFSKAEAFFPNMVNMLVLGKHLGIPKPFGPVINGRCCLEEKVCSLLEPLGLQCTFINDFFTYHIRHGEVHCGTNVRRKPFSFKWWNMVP
row,Molecule,IC50 [nM]
1,"COc1cc(C(=O)N2[C@H]3CC[C@@H]2[C@H](N)C3)cc2nc(-c3cc4ccc([C@@H](C)NC(=O)c5cccc(C#N)c5)nc4n3CC3CC3)c(C)n12 [Example 122, ~{N}-[(1~{R})-1-[2-[7-[(1~{R},2~{R},4~{S})-2-amino-7-azabicyclo[2.2.1]heptane-7-carbonyl]-5-methoxy-3-methylimidazo [1,2-a]pyridin-2-yl]-1-(cyclopropylmethyl)pyrrolo [2,3-b]pyridin-6-yl]ethyl]-3-cyanobenzamide]",78.5
2,"COc1cc(C(=O)N2C[C@H]3C[C@@]3(N)C2)cc2nc(-c3cc4ccc([C@@H](C)NC(=O)C56CC(F)(C5)C6)nc4n3CC3CC3)c(C)n12 [Example 24, ~{N}-[(1~{R})-1-[2-[7-[(1~{S},5~{R})-1-amino-3-azabicyclo [3.1.0]hexane-3-carbonyl]-5-methoxy-3-methylimidazo [1,2-a]pyridin-2-yl]-1-(cyclopropylmethyl)pyrrolo[2,3-b]pyridin-6-yl]ethyl]-3-fluorobicyclo[1.1.1] pentane-1-carboxamide]",9010
3,"COc1cc(C(=O)N2[C@H]3CC[C@@H]2[C@H](N)C3)cc2nc(-c3cc4ccc([C@@H](C)NC(=O)N[C@H](C)c5cccnc5)nc4n3CC3CC3)c(C3CC3)n12 [Example 218, 1-[(1~{R})-1-[2-[7-[(1~{R},2~{R},4~{S})-2-amino-7-azabicyclo[2.2.1]heptane-7-carbonyl]-3-cyclopropyl-5-methoxyimidazo [1,2-a]pyridin-2-yl]-1-(cyclopropylmethyl)pyrrolo [2,3-b]pyridin-6-yl]ethyl]-3-[(1~{R})-1-pyridin-3-ylethyl]urea]",55.5
4,"COc1cc(C(=O)N2[C@H]3CC[C@@H]2[C@H](N)C3)cc2nc(-c3cc4ccc([C@@H](C)NC(=O)C56CC(C#N)(C5)C6)nc4n3CC3CC3)c(C)n12 [Example 158, ~{N}-[(1~{R})-1-[2-[7-[(1~{R},2~{R},4~{S})-2-amino-7-azabicyclo[2.2.1]heptane-7-carbonyl]-5-methoxy-3-methylimidazo [1,2-a]pyridin-2-yl]-1-(cyclopropylmethyl)pyrrolo [2,3-b]pyridin-6-yl]ethyl]-3-cyanobicyclo[1.1.1]pentane-1-carboxamide]",73.8
5,"3-[(1~{R})-1-[2-[7- [(1~{R},2~{R},4~{S})-2- amino-7- azabicyclo[2.2.1]heptane-7- carbonyl]-3-cyclopropyl-5- methoxyimidazo [1,2-a]pyridin-2-yl]-1- (cyclopropylmethyl)pyrrolo [2,3-b]pyridin-6-yl]ethyl]-1- [(6-methoxypyridin-2- yl)methyl]-1-methylurea [Example 219]",124
6,"COc1cc(C(=O)N2[C@H]3CC[C@@H]2[C@H](N)C3)cc2nc(-c3cc4ccc(C5CCCCN5C(=O)N5CCCC5)nc4n3CC3CC3)c(C)n12 (stereo partly shown) [Example 544, [(1~{R},2~{R},4~{S})-2-amino-7-azabicyclo [2.2.1]heptan-7-yl]-[2-[1-(cyclopropylmethyl)-6-[1-(pyrrolidine-1-carbonyl)piperidin-2-yl]pyrrolo [2,3-b]pyridin-2-yl]-5-methoxy-3-methylimidazo [1,2-a]pyridin-7-yl] methanone]",361
7,"COc1cc(C(=O)N2[C@H]3CC[C@@H]2[C@H](N)C3)cc2nc(-c3cc4ccc([C@H]5CCNC(=O)C5)nc4n3CC3CC3)c(C)n12 [Example 554, (4~{S})-4-[2-[7-[(1~{R}, 2~{R},4~{S})-2-amino-7-azabicyclo[2.2.1]heptane-7-carbonyl]-5-methoxy-3-methylimidazo [1,2-a]pyridin-2-yl]-1-(cyclopropylmethyl)pyrrolo [2,3-b]pyridin-6-yl]piperidin-2-one]",81
8,"[(1~{R},2~{R},4~{S})-2- amino-7- azabicyclo[2.2.1]heptane-7- carbonyl]- 5-methoxy-3-methylimidazo [1,2-a]pyridin-2-yl]-1- (cyclopropylmethyl)pyrrolo [2,3-b]pyridin-6-yl]ethyl]-3- hydroxybicyclo[1.1.1] pentane-1-carboxamide [Example 87]",28.6
9,"COc1cc(C(=O)N2CCC[C@@H](N)C2)cc2nc(-c3cc4ccc(Cl)nc4n3CC3CC3)c(C)n12 [Example 599, [(3~{R})-3-aminopiperidin-1-yl]-[2-[6-chloro-1-(cyclopropylmethyl)pyrrolo [2,3-b]pyridin-2-yl]-5-methoxy-3-methylimidazo[1,2-a]pyridin-7-yl]methanone]",1910
10,"COc1cc(C(=O)N2[C@H]3CC[C@@H]2[C@H](N)C3)cc2nc(-c3cc4ccc([C@@H](C)NC(=O)C(F)(F)F)nc4n3CC3CC3)c(C)n12 [Example 162, ~{N}-[(1~{R})-1-[2-[7-[(1~{R},2~{R},4~{S})-2-amino-7-azabicyclo[2.2.1]heptane-7-carbonyl]-5-methoxy-3-methylimidazo [1,2-a]pyridin-2-yl]-1-(cyclopropylmethyl)pyrrolo [2,3-b]pyridin-6-yl]ethyl]-2,2,2-trifluoroacetamide]",99.1
11,"COc1cc(C(=O)N2[C@H]3CC[C@@H]2[C@H](N)C3)cc2nc(-c3cc4ccc(N5CCCOC5=O)nc4n3CC3CC3)c(C)n12 [Example 464, 3-[2-[7-[(1~{R},2~{R}, 4~{S})-2-amino-7-azabicyclo[2.2.1]heptane-7-carbonyl]-5-methoxy-3-methylimidazo[1,2-a]pyridin-2-yl]-1-(cyclopropylmethyl)pyrrolo [2,3-b]pyridin-6-yl]-1,3-oxazinan-2-one]",100
12,COc1cc(C(=O)N2[C@H]3CC[C@@H]2[C@H](N)C3)cc2nc(-c3cc4ccc([C@@H](C)NC(=O)N5CCC(C(=O)O)C5)nc4n3CC3CC3)c(C)n12 (stereo partly shown) [Example 228],48.6
13,"COc1cc(C(=O)N2[C@H]3CC[C@@H]2[C@H](N)C3)cc2nc(-c3cc4ccc([C@@H](C)N5CCN(C)C5=O)nc4n3CC3CC3)c(C)n12 [Example 270, 1-[(1~{R})-1-[2-[7-[(1~{R},2~{R},4~{S})-2-amino-7-azabicyclo[2.2.1]heptane-7-carbonyl]-5-methoxy-3-methylimidazo [1,2-a]pyridin-2-yl]-1-(cyclopropylmethyl)pyrrolo [2,3-b]pyridin-6-yl]ethyl]-3-methylimidazolidin-2-one]",34.7
14,"COc1cc(C(=O)N[C@H]2CNC[C@@H](C)C2)cc2nc(-c3cc4ccc(N(C(F)F)S(C)(=O)=O)nc4n3CC3CC3)c(C)n12 [Example 317, 2-[1-(cyclopropylmethyl)-6-[difluoromethyl (methylsulfonyl)amino]pyrrolo[2,3-b]pyridin-2-yl]-5-methoxy-3-methyl-~{N}-[(3~{R},5~{S})-5-methylpiperidin-3-yl] imidazo[1,2-a]pyridine-7-carboxamide]",813
15,"COc1cc(C(=O)N2CCC[C@@H](N)C2)cc2nc(-c3cc4ccc(C(NC(C)=O)C(C)C)nc4n3CC3CC3)c(C)n12 (stereo partly shown) [Example 195, ~{N}-[1-[2-[7-[(3~{R})-3-aminopiperidine-1-carbonyl]-5-methoxy-3-methylimidazo [1,2-a]pyridin-2-yl]-1-(cyclopropylmethyl)pyrrolo [2,3-b]pyridin-6-yl]-2-methylpropyl]acetamide]",519
16,CNC(=O)[C@@H](C)Oc1ccc2cc(-c3nc4cc(C(=O)N5CCC[C@@H](N)C5)cc(OC)n4c3C)n(CC3CC3)c2n1 [Example 618],401
17,"COc1cc(C(=O)N2[C@H]3CC[C@@H]2[C@H](N)C3)cc2nc(-c3cc4ccc([C@@H](C)NC(=O)c5ccnc(C(F)F)c5)nc4n3CC3CC3)c(C)n12 [Example 50, ~{N}-[(1~{R})-1-[2-[7-[(1~{R},2~{R},4~{S})-2-amino-7-azabicyclo[2.2.1]heptane-7-carbonyl]-5-methoxy-3-methylimidazo [1,2-a]pyridin-2-yl]-1-(cyclopropylmethyl)pyrrolo[2,3-b]pyridin-6-yl]ethyl]-2-(difluoromethyl)pyridine-4-carboxamide]",30.6
18,COc1ccccc1C(=O)N[C@H](C)c1ccc2cc(-c3nc4cc(C(=O)N5[C@H]6CC[C@@H]5[C@H](N)C6)cc(OC)n4c3C)n(CC3CC3)c2n1 [Example 17],348
19,"COc1cc(C(=O)N2[C@H]3CC[C@@H]2[C@H](N)C3)cc2nc(-c3cc4ccc(N5CCCC(C(C)C)S5(=O)=O)nc4n3CC3CC3)c(C)n12 (stereo partly shown) [Example 452, [(1~{R},2~{R},4~{S})-2-amino-7-azabicyclo [2.2.1]heptan-7-yl]-[2-[1-(cyclopropylmethyl)-6-(1,1-dioxo-6-propan-2-ylthiazinan-2-yl)pyrrolo [2,3-b]pyridin-2-yl]-5-methoxy-3-methylimidazo [1,2-a]pyridin-7-yl]methanone]",246
20,"CCC(C)(O)c1ccc2cc(-c3nc4cc(C(=O)N5[C@H]6CC[C@@H]5[C@H](N)C6)cc(OC)n4c3C)n(CC3CC3)c2n1 (stereo partly shown) [Example 572, [(1~{R},2~{R},4~{S})-2-amino-7-azabicyclo [2.2.1]heptan-7-yl]-[2-[1-(cyclopropylmethyl)-6-(2-hydroxybutan-2-yl)pyrrolo [2,3-b]pyridin-2-yl]-5-methoxy-3-methylimidazo[1,2-a]pyridin-7-yl]methanone]",152
21,COc1cc(C(=O)N2[C@H]3CC[C@@H]2[C@H](N)C3)cc2nc(-c3cc4ccc([C@@H](C)NC(=O)c5cnn(C(F)F)c5)nc4n3CC3CC3)c(C)n12 [Example 107],44.3
22,"COc1cc(C(=O)N2[C@@H]3CC[C@@H](N)[C@H]2CC3)cc2nc(-c3cc4ccc(N(C(F)F)S(C)(=O)=O)nc4n3CC3CC3)c(C)n12 [Example 407, ~{N}-[2-[7-[(1~{R},2~{R}, 5~{R})-2-amino-8-azabicyclo[3.2.1]octane-8-carbonyl]-5-methoxy-3-methylimidazo[1,2-a]pyridin-2-yl]-1-(cyclopropylmethyl)pyrrolo [2,3-b]pyridin-6-yl]-~{N}-(difluoromethyl) methanesulfonamide]",129
